EC50 data for 17 molecules are collected here from patent publication US12344610B2, “APOL1 inhibitors and methods of use” (Maze Therapeutics, Inc., priority 2022, dated 2025).

Where two headings read alike, the source gives them in different places.

Holding throughout (assay type): cell-based
The test system of test [1] is HEK293 clonal cell line overexpressing APOL1 G1. Description: APOL1 G1 HEK293 cell rescue assay (Example B3). The note with it: geometric mean of at least 2 runs, † = single run, ¥ = concentration at 50% rescue estimated (no sigmoidal curve). The method, boiled down: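 HEK293 clonal line overexpressing APOL1 G1; EC50 is half-maximal reversal of APOL1-induced cell death. Values are the geometric mean of ≥2 runs on separate days, each run the average of duplicate wells. Where no sigmoidal curve could be fitted, the concentration giving 50% rescue was estimated.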

The subject of test [2] is Trypanosoma brucei Lister 427 VSG221 with APOL1 G0 recombinant protein. In words: APOL1 G0 trypanosome cell rescue assay (Example B5). As to conditions: geometric mean of at least 2 assay runs, † = single assay run. The method in brief: (§1)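 Mature APOL1 (residues 28-398, E. coli-expressed, His-tag removed by TEV) was added as a 2 μg/mL solution to T. brucei Lister 427 VSG221 in modified HMI-9 medium at 250 cells/well, with duplicate 11-point 2-fold compound dilutions (0.4% DMSO). After 20 h at 37° C, 5% CO2, viability was read by CellTiter-Glo luminescence.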

The subject of test [3] is Trypanosoma brucei Lister 427 VSG221 with APOL1 G2 recombinant protein. In words: APOL1 G2 trypanosome cell rescue assay (Example B5). The note with it: geometric mean of at least 2 assay runs, † = single assay run. The method, boiled down: as §1
[4] abbreviates: HEK293 clonal line overexpressing APOL1 G1.
[5] abbreviates: Trypanosoma brucei, 20 h, read-out: APOL1 G0 Trypanosome Rescue EC50, Trypanosoma brucei Lister 427 VSG221 with APOL1 G0 recombinant protein, 20 hours, CellTiter-Glo.
The mark [6] stands for this setting: Trypanosoma brucei, 20 h, read-out: APOL1 G2 Trypanosome Rescue EC50, Trypanosoma brucei Lister 427 VSG221 with APOL1 G2 recombinant protein, 20 hours, CellTiter-Glo.
Setting [7] is: Homo sapiens, HEK293, HEK293 clonal line overexpressing APOL1 G1.
Where [8] appears, read: read-out: APOL1 G0 Trypanosome Rescue EC50, Trypanosoma brucei Lister 427 VSG221 with APOL1 G0 recombinant protein, 20 hours, CellTiter-Glo.
Where [9] appears, read: read-out: APOL1 G2 Trypanosome Rescue EC50, Trypanosoma brucei Lister 427 VSG221 with APOL1 G2 recombinant protein, 20 hours, CellTiter-Glo.

Broadly, the EC50 is the concentration needed to bring the measured effect to its halfway point. With `CC(COc1ccc2c(c1)CCC(=O)N2C)N1CCC2(CC1)C(=O)Nc1ccc(Cl)cc12` (single isomer, unassigned) [Compound 200], the half-maximal effective concentration (EC50) in test [1] (setting [4]) is 203 nM; in test [2] (setting [5]), 185 nM; in test [3] (setting [6]), 72.4 nM.

As for `CC(COc1ccc2c(c1)CCC(=O)N2C)N1CCC2(CC1)C(=O)Nc1ccc(C#N)cc12` (single isomer, unassigned) [Compound 203, (S) or (R)-1′-{1-[(1-methyl-2-oxo-1,2,3,4-tetrahydroquinolin-6-yl)oxy]propan-2-yl}-2-oxo-1,2-dihydrospiro[indole-3,4′-piperidine]-5-carbonitrile], the results for the concentration for a half-maximal effect (EC50) in test [1] (setting [4]), in test [2] (setting [5]) and in test [3] (setting [6]) were 457 nM, 565 nM and 227 nM, respectively.

Regarding `C[C@@H](COc1ccc(S(C)(=O)=O)c(C(F)F)c1)N1CCC2(CC1)C(=O)Nc1ccc(Cl)cc12` (single isomer, unassigned) [Compound 210], the EC50 in test [1] (setting [7]) was 153 nM; in test [2] (setting [5]) it was 63.8 nM; in test [3] (setting [6]), 21.8 nM.

`C[C@@H](COc1ccc2c(cnn2C)c1)N1CCC2(CC1)C(=O)Nc1ccc(Cl)cc12` (single isomer, unassigned) [Compound 211]: the EC50 is 380 nM in test [1] (setting [7]), 480 nM in test [2] (setting [5]) and 159 nM in test [3] (setting [6]).

For the molecule `C[C@@H](COc1ccc(S(C)(=O)=O)c(C(F)F)c1)N1CCC2(CC1)C(=O)Nc1ccc(C#N)cc12` (single isomer, unassigned) [Compound 212], the values for the EC50 in test [1] (setting [7]), in test [2] (setting [5]) and in test [3] (setting [6]) were 192 nM, 69.6 nM and 32.1 nM, respectively.

As for `CS(=O)(=O)c1ccc(OCCN2CCC3(CC2)C(=O)Nc2ccc(Cl)cc23)cc1C(F)CF` (single isomer, unassigned) [Compound 218, 5-chloro-1′-(2-{3-[(1S or 1R)-1,2-difluoroethyl]-4-methanesulfonylphenoxy}ethyl)-1,2-dihydrospiro[indole-3,4′-piperidin]-2-one], the 50% effective concentration (EC50) was 125 nM in test [1] (setting [7]), 65.1 nM in test [2] (setting [8]) and 31.6 nM in test [3] (setting [9]).

Regarding `CS(=O)(=O)c1ccc(OCCN2CCC3(CC2)C(=O)Nc2ccc(Cl)cc23)cc1C(F)CF` (single isomer, unassigned) [Compound 219, 5-chloro-1′-(2-{3-[(1R or 1S)-1,2-difluoroethyl]-4-methanesulfonylphenoxy}ethyl)-1,2-dihydrospiro[indole-3,4′-piperidin]-2-one], the figures for the EC50 in test [1] (setting [4]), in test [2] (setting [8]) and in test [3] (setting [9]) were 116 nM, 22.3 nM and 10.5 nM, respectively.

In the case of `CS(=O)(=O)c1ccc(OCCN2CCC3(CC2)C(=O)Nc2ccc(C#N)cc23)cc1C(F)CF` (single isomer, unassigned) [Compound 221, 1′-(2-{3-[(1S or 1R)-1,2-difluoroethyl]-4-methanesulfonyl-phenoxy}ethyl)-2-oxo-1,2-dihydrospiro [indole-3,4′-piperidine]-5-carbonitrile], the EC50 was 217 nM in test [1] (setting [4]), 75 nM in test [2] (setting [5]) and 29.5 nM in test [3] (setting [6]).

As to `CC(COc1ccc(C2(S(C)(=O)=O)COC2)cc1)N1CCC2(CC1)C(=O)Nc1ccc(C#N)cc12` (single isomer, unassigned) [Compound 263, (S) or (R)-1′-{1-[4-(3-methanesulfonyloxetan-3-yl)phenoxy]propan-2-yl}-2-oxo-1,2-dihydrospiro[indole-3,4′-piperidine]-5-carbonitrile], the results for the EC50 in test [1] (setting [4]), in test [2] (setting [5]) and in test [3] (setting [6]) were 462 nM, 226 nM and 95.3 nM, respectively.

For the molecule `CN1C(=O)C2(CCN(CCOc3ccc(C4(S(C)(=O)=O)CC(O)C4)cc3)CC2)c2cc(C(F)F)ccc21` (single isomer, unassigned) [Compound 278, 5-(difluoromethyl)-1-methyl-1′-(2-{4-[(cis) or (trans)-3-hydroxy-1-methanesulfonylcyclobutyl]phenoxy}ethyl)-1,2-dihydrospiro[indole-3,4′-piperidin]-2-one], the EC50 was 92.6 nM in test [1] (setting [4]), 114 nM in test [2] (setting [5]) and 25.5 nM in test [3] (setting [9]).

Take `CS(=O)(=O)C1(c2ccc(OCCN3CCC4(CC3)C(=O)Nc3ccc(C(F)F)cc34)cc2)CC(O)C1` (single isomer, unassigned) [Compound 281, 5-(difluoromethyl)-1′-(2-{4-[(cis) or (trans)-3-hydroxy-1-methanesulfonylcyclobutyl]phenoxy}ethyl)-1,2-dihydrospiro[indole-3,4′-piperidin]-2-one]: the results for the EC50 in test [1] (setting [4]), in test [2] (setting [5]) and in test [3] (setting [9]) were 164 nM, 95.9 nM and 28.1 nM, respectively.

As to `CC(O)c1ncc(OCCN2CCC3(CC2)C(=O)Nc2ccc(Cl)cc23)cn1` (single isomer, unassigned) [Compound 285, 5-chloro-1′-[2-({2-[(1S) or (1R)-1-hydroxyethyl]pyrimidin-5-yl}oxy)ethyl]-1,2-dihydrospiro[indole-3,4′-piperidin]-2-one], the EC50 is 292 nM in test [1] (setting [7]), 547 nM in test [2] (setting [5]) and 212 nM in test [3] (setting [6]).

Consider `CC(O)c1ncc(OCCN2CCC3(CC2)C(=O)Nc2ccc(Cl)cc23)cn1` (single isomer, unassigned) [Compound 286, 5-chloro-1′-[2-({2-[(1R) or (1S)-1-hydroxyethyl]pyrimidin-5-yl}oxy)ethyl]-1,2-dihydrospiro[indole-3,4′-piperidin]-2-one], for which the EC50 in test [1] (setting [4]) was 272 nM; in test [2] (setting [8]) it was 505 nM; in test [3] (setting [9]), 175 nM.

Consider `CC(O)c1ncc(OCCN2CCC3(CC2)C(=O)Nc2ccc(C(F)F)cc23)cc1C(F)(F)F` (single isomer, unassigned) [Compound 287, 5-(difluoromethyl)-1′-[2-({6-[(1S) or (1R)-1-hydroxyethyl]-5-(trifluoromethyl)pyridin-3-yl}oxy)ethyl]-1,2-dihydrospiro[indole-3,4′-piperidin]-2-one], for which the results for the EC50 in test [1] (setting [7]), in test [2] (setting [5]) and in test [3] (setting [6]) were 85.8 nM, 37.6 nM and 13.9 nM, respectively.

On to `CC(O)c1ncc(OCCN2CCC3(CC2)C(=O)Nc2ccc(C(F)F)cc23)cc1C(F)(F)F` (single isomer, unassigned) [Compound 288, 5-(difluoromethyl)-1′-[2-({6-[(1R) or (1S)-1-hydroxyethyl]-5-(trifluoromethyl)pyridin-3-yl}oxy)ethyl]-1,2-dihydrospiro[indole-3,4′-piperidin]-2-one], for which the EC50 in test [1] (setting [4]) was 62.1 nM; in test [2] (setting [8]), 26.2 nM; in test [3] (setting [9]) it was 9.75 nM.

For `CC[C@]1(O)C[C@H](N2C(=O)CCc3cc(OCCN4CCC5(CC4)C(=O)Nc4ccc(Cl)cc45)cnc32)C1` (single isomer, unassigned) [Compound 290, 5-chloro-1′-[2-({7-oxo-8-[(trans)-3-ethyl-3-hydroxycyclobutyl]-5,6,7,8-tetrahydro-1,8-naphthyridin-3-yl}oxy)ethyl]-1,2-dihydrospiro[indole-3,4′-piperidin]-2-one], the EC50 was 63.9 nM in test [1] (setting [7]), 55.5 nM in test [2] (setting [5]) and 24 nM in test [3] (setting [6]).

Turning to `CC(O)c1ncc(OCCN2CCC3(CC2)C(=O)Nc2ccc(Cl)cc23)cc1C(F)(F)F` (single isomer, unassigned) [Compound 291, 5-chloro-1′-[2-({6-[(1R) or (1S)-1-hydroxyethyl]-5-(trifluoromethyl)pyridin-3-yl}oxy)ethyl]-1,2-dihydrospiro[indole-3,4′-piperidin]-2-one], the EC50 in test [1] (setting [4]) is 104 nM; in test [2] (setting [5]) it was 63.1 nM; in test [3] (setting [9]), 26.5 nM.
